Measurements reported in US6521407B1, “Methods for determining chemosensitivity of cancer cells based upon expression of negative and positive signal transduction factors” (TheRyte Limited, priority 1998, dated 2003).

Key:
Type in all cases: cell-based, human
MGHU1 = experiment: Clonogenic cell survival assay (D0.1), MGHU1; details: MGHU1, p53 wild-type, detectable p21; for Absolute D0.1: dose reducing clonogenic survival to 10% of control, 14 days exposure
Experimental: (§1) The growth characteristics clonogenic assay procedures of the 11 human in vitro cell lines used in this analysis have already been reported e.g. in Britten R. A. and Warenius H., Eur. J. Canc. 29A, 1315-1320 (1993). The cell lines are listed, with their histological classification in Table 4. All are well established; many having been growing in vitro for several years. Cell lines were either donations or purchased by our laboratories. On receipt all were grown for 5 passages to provide sufficient cells for batch storage in liquid nitrogen. During this period contamination was excluded by at least one passage in antibiotic free medium and mycoplasma testing was carried out on all lines. For clonogenic assays, cells were taken from a designated primary liquid nitrogen batch and grown for 3-6 passages until there were sufficient well-growing cells. Further batches from these cells were frozen in liquid nitrogen. Cells were routinely maintained in DMEM medium. All lines were supplemented with 10% heat-inactivated foetal calf serum (HIFCS). […] The D0.1 values were obtained by several independent clonogenic assays and the data fitted by linear regression analysis. The clonogenic assays were repeated until statistically satisfactory fits were achieved on linear regression. The D0.1 values were obtained by interpolation of the linear regression lines. The cytotoxic drug D0.1 values have been normalised and expressed as relative D0.1 values, to enable the relative sensitivity of each cell to each of the drugs to be compared.
(§2) In order to assay CDDP sensitivity 10^2-10^5 cells were plated in 3 ml of Ham's F12 medium supplemented with 10% FCS in 6 well plates and incubated at 37° C. in an atmosphere of 5% CO2 for 8 hours. […] The medium was then removed, the cells were fixed in 70% ethanol and stained with 10% Giemsa and colonies of >100 cells counted. […] CDDP cell survival was determined at the 10% clonogenic cell survival level (D0.1) by interpolation of the fitted regression curve. […]

MEL2 = experiment: Clonogenic cell survival assay (D0.1), MEL2; details: MEL2, p53 mutant, undetectable p21; for Absolute D0.1: dose reducing clonogenic survival to 10% of control, 14 days exposure
Experimental: as §1, §2

RT112 = experiment: Clonogenic cell survival assay (D0.1), RT112; details: RT112, p53 mutant, undetectable p21; for Absolute D0.1: dose reducing clonogenic survival to 10% of control, 14 days exposure
Experimental: as §1, §2

HT29 = experiment: Clonogenic cell survival assay (D0.1), HT29; details: HT29, p53 mutant, undetectable p21; for Absolute D0.1: dose reducing clonogenic survival to 10% of control, 14 days exposure
Experimental: as §1, §2

CORL23 = experiment: Clonogenic cell survival assay (D0.1), CORL23; details: CORL23, p53 wild-type, detectable p21; for Absolute D0.1: dose reducing clonogenic survival to 10% of control, 14 days exposure
Experimental: as §1, §2

2780 = experiment: Clonogenic cell survival assay (D0.1), 2780; details: 2780, p53 wild-type, detectable p21; for Absolute D0.1: dose reducing clonogenic survival to 10% of control, 14 days exposure
Experimental: as §1, §2

A431 = experiment: Clonogenic cell survival assay (D0.1), A431; details: A431, p53 mutant, undetectable p21; for Absolute D0.1: dose reducing clonogenic survival to 10% of control, 14 days exposure
Experimental: as §1, §2

I407 = experiment: Clonogenic cell survival assay (D0.1), I407; details: 1407 (I407), p53 wild-type, detectable p21; for Absolute D0.1: dose reducing clonogenic survival to 10% of control, 14 days exposure
Experimental: as §1, §2

HRT18 = experiment: Clonogenic cell survival assay (D0.1), HRT18; details: HRT18, p53 wild-type, detectable p21; for Absolute D0.1: dose reducing clonogenic survival to 10% of control, 14 days exposure
Experimental: as §1, §2

OAW42 = experiment: Clonogenic cell survival assay (D0.1), OAW42; details: OAW42, p53 wild-type, detectable p21
Experimental: (§3) The growth characteristics clonogenic assay procedures of the 11 human in vitro cell lines used in this analysis have already been reported e.g. in Britten R. A. and Warenius H., Eur. J. Canc. 29A, 1315-1320 (1993). The cell lines are listed, with their histological classification in Table 4. All are well established; many having been growing in vitro for several years. Cell lines were either donations or purchased by our laboratories. On receipt all were grown for 5 passages to provide sufficient cells for batch storage in liquid nitrogen. During this period contamination was excluded by at least one passage in antibiotic free medium and mycoplasma testing was carried out on all lines. For clonogenic assays, cells were taken from a designated primary liquid nitrogen batch and grown for 3-6 passages until there were sufficient well-growing cells. Further batches from these cells were frozen in liquid nitrogen. Cells were routinely maintained in DMEM medium. All lines were supplemented with 10% heat-inactivated foetal calf serum (HIFCS). […]
(§4) In order to assay CDDP sensitivity 10^2-10^5 cells were plated in 3 ml of Ham's F12 medium supplemented with 10% FCS in 6 well plates and incubated at 37° C. in an atmosphere of 5% CO2 for 8 hours. […] The medium was then removed, the cells were fixed in 70% ethanol and stained with 10% Giemsa and colonies of >100 cells counted.

MOR = experiment: Clonogenic cell survival assay (D0.1), MOR; details: p53 mutant
Experimental: as §3, §4

[1] = absolute D0.1 divided by mean D0.1 of the drug

| Structure (SMILES) | Absolute D0.1 (MGHU1) | Absolute D0.1 (MEL2) | Absolute D0.1 (RT112) | Absolute D0.1 (HT29) | Absolute D0.1 (CORL23) | Absolute D0.1 2780 | Absolute D0.1 (A431) | Absolute D0.1 (I407) | Absolute D0.1 (HRT18) | other results |
| --- | --- | --- | --- | --- | --- | --- | --- | --- | --- | --- |
| CC(=O)O[C@H]1C(=O)[C@@]2(C)[C@H]([C@H](OC(=O)c3ccccc3)[C@]3(O)C[C@H](OC(=O)[C@H](O)[C@@H](NC(=O)c4ccccc4)c4ccccc4)C(C)=C1C3(C)C)[C@]1(OC(C)=O)CO[C@@H]1C[C@@H]2O [Paclitaxel (TAXOL), Paclitaxel] | 1.144 | 0.57 | 1.523 | 1.106 | 0.497 | 2.113 | 0.823 | 1.504 | 10.415 | – |
| N.N.[Cl][Pt][Cl] [CDDP, cis-diamminedichloroplatinum] | 0.4494 | 0.457 | 0.237 | 0.632 | 0.338 | 0.255 | 0.306 | 0.06 | 0.864 | Relative D0.1 (OAW42; [1]): 0.27; Absolute D0.1 (OAW42; dose reducing clonogenic survival to 10% of control, 14 days exposure): 0.108; Relative D0.1 (MGHU1; [1]): 1.235; Relative D0.1 (MEL2; [1]): 1.143; Relative D0.1 (RT112; [1]): 0.593; Relative D0.1 (HT29; [1]): 1.58; Relative D0.1 (MOR; undetectable p21, absolute D0.1 divided by mean D0.1 of the drug): 1.573; Absolute D0.1 (MOR; undetectable p21, dose reducing clonogenic survival to 10% of control, 14 days exposure): 0.629; Relative D0.1 (CORL23; [1]): 0.845; Relative D0.1 2780; [1]: 0.637; Relative D0.1 (A431; [1]): 0.765; Relative D0.1 (I407; [1]): 0.15; Relative D0.1 (HRT18; [1]): 2.16 |
